ChEMBL document CHEMBL4229543, “Squaramides as novel class I and IIB histone deacetylase inhibitors for topical treatment of cutaneous t-cell lymphoma” (Bioorg Med Chem Lett, 2018)
≈ marks a conversion by molar mass, not a printed value.

Legend:
[1] = Solubility in PG/EtOH (96%) at 30 mg/mL after 24 hrs by UV-spectrometric method; assay type: physicochemical; conditions: PG/EtOH (96%)
[2] = molecular target: T1, NAD-dependent protein deacetylase sirtuin-7 (Homo sapiens, UniProt Q9NRC8); assay: Inhibition of SIRT7 (unknown origin)
T1 sequence (Q9NRC8 whole entry): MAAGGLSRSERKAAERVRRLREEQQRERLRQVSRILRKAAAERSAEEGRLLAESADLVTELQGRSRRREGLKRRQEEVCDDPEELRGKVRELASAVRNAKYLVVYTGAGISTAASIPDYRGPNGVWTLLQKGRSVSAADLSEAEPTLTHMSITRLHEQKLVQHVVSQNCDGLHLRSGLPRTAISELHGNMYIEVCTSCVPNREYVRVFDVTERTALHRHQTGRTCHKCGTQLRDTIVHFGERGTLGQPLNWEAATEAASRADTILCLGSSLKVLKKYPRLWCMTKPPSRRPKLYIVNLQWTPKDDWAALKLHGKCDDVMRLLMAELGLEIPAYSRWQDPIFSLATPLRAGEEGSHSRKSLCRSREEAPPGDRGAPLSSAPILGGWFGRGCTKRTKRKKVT

HuT78 = assay: Pro-apoptotic activity in human HUT78 cells after 18 hrs by caspase-Glo 3/7 assay; assay type: functional, cell-based; conditions: HuT78, 18 h
[3] = Solubility in pH 7.4 phosphate buffer solution at 100 uM after 24 hrs by HPLC method; assay type: physicochemical
[4] = molecular target: T2, NAD-dependent protein deacetylase sirtuin-1 (Homo sapiens, UniProt Q96EB6); assay: Inhibition of human recombinant SIRT1 using fluorogenic HDAC substrate after 20 mins by fluorimetrc method
T2 sequence (Q96EB6 whole entry): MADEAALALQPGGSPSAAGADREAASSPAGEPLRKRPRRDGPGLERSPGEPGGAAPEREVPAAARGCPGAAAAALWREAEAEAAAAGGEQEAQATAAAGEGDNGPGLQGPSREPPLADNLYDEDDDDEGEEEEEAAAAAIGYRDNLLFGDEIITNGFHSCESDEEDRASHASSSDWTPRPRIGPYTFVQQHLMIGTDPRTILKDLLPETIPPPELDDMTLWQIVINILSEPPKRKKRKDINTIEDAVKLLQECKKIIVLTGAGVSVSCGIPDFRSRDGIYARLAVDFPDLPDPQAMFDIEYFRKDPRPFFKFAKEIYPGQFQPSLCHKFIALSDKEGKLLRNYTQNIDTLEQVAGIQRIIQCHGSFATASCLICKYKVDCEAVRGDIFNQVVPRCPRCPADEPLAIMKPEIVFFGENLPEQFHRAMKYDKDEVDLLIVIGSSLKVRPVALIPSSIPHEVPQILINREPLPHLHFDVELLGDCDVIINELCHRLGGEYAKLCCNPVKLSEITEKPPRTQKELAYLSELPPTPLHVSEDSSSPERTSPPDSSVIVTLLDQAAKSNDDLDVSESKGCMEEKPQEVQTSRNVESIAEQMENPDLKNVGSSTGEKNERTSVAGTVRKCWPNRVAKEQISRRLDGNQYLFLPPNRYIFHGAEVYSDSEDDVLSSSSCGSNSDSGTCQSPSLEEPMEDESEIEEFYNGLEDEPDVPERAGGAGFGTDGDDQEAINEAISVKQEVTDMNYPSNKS

[5] = molecular target: T3, NAD-dependent protein deacetylase sirtuin-3, mitochondrial (Homo sapiens, UniProt Q9NTG7); assay: Inhibition of human recombinant SIRT3 using fluoro-lysine sirtuin 2 deacetylase substrate after 45 mins by fluorimetrc method
T3 sequence (Q9NTG7 whole entry): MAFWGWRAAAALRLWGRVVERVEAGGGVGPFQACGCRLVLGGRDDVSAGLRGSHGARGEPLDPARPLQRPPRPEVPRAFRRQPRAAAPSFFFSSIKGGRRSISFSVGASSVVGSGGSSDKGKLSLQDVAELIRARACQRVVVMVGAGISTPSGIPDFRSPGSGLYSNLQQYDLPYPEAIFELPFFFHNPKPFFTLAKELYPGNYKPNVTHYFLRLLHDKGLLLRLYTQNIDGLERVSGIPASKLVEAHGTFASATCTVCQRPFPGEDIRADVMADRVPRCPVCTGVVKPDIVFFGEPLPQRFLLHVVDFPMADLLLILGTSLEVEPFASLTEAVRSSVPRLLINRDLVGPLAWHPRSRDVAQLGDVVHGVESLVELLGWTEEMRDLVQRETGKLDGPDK

[6] = molecular target: T4, NAD-dependent protein deacetylase sirtuin-2 (Homo sapiens, UniProt Q8IXJ6); assay: Inhibition of human recombinant SIRT2 using fluoro-lysine sirtuin 2 deacetylase substrate after 60 mins by fluorimetrc method
T4 sequence (Q8IXJ6 whole entry): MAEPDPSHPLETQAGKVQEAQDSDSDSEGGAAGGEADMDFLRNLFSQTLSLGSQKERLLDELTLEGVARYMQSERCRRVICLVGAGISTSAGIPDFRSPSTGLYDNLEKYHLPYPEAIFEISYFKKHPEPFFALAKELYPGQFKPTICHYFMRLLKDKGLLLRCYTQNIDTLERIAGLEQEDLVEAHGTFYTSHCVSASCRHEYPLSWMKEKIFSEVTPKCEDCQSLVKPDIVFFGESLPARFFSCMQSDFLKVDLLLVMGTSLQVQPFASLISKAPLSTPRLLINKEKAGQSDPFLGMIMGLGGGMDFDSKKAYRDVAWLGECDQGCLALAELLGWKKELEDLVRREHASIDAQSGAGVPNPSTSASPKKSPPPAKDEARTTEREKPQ

[7] = Clearance in human hepatocytes assessed per million cells at 1 uM after 5 to 90 mins by LC-MS/MS analysis; assay type: ADME, cell-based, Hepatocyte; conditions: read-out: CLH
[8] = molecular target: T5, Polyamine deacetylase HDAC10 (Homo sapiens, UniProt Q969S8); assay: Inhibition of human recombinant HDAC10 using fluorogenic HDAC substrate after 45 mins by fluorimetrc method
T5 sequence (Q969S8 whole entry): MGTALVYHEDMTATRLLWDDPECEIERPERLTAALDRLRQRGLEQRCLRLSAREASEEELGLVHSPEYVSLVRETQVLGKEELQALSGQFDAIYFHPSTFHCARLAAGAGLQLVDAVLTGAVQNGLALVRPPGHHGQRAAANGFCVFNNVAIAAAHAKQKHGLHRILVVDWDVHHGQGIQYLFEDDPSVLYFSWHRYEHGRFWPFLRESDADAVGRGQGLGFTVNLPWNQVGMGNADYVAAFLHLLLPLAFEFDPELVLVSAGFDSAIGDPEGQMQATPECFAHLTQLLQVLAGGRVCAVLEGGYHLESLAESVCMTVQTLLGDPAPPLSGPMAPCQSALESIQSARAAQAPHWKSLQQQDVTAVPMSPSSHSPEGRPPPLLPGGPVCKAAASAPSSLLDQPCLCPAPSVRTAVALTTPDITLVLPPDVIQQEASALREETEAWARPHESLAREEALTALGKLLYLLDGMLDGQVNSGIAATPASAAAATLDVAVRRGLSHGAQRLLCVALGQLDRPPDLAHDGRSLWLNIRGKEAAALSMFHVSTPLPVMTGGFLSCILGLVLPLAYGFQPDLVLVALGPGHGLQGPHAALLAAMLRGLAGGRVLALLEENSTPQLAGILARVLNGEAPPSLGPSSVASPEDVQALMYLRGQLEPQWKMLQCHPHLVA

Histone deacetylase 5 = Histone deacetylase 5 (Homo sapiens, UniProt Q9UQL6); assay: Inhibition of human recombinant HDAC5 using fluorogenic HDAC substrate class 2a after 30 mins by fluorimetrc method
Chain of Histone deacetylase 5 (Q9UQL6 whole entry): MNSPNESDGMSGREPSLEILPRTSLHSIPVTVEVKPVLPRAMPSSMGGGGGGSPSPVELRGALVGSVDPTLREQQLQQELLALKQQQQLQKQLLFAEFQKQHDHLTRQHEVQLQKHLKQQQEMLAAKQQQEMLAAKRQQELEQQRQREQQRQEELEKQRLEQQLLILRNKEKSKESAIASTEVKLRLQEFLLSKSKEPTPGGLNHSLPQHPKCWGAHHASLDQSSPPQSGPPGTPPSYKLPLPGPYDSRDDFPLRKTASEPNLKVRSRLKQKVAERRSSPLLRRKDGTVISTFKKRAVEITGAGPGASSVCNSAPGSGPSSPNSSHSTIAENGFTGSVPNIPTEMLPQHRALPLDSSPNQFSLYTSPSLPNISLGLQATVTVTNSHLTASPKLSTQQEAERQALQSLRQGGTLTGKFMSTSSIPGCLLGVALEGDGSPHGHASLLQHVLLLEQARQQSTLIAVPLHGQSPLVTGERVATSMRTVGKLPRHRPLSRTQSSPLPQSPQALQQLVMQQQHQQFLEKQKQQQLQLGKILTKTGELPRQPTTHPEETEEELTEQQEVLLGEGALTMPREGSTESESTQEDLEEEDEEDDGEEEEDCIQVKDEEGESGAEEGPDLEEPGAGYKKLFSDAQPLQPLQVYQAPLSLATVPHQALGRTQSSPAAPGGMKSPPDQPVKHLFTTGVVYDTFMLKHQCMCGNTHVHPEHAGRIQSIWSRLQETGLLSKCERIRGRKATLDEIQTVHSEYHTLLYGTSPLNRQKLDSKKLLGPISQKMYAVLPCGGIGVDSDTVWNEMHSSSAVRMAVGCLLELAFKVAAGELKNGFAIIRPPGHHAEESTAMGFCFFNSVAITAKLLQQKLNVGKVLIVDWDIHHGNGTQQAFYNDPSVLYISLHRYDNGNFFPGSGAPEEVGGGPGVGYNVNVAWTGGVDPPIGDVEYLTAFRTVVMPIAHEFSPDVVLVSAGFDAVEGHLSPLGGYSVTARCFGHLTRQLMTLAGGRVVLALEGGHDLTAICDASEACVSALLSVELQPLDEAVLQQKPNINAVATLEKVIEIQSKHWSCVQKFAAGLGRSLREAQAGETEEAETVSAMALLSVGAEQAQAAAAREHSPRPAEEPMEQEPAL

Histone deacetylase 9 = Histone deacetylase 9 (Homo sapiens, UniProt Q9UKV0); assay: Inhibition of human recombinant HDAC9 using fluorogenic HDAC substrate class 2a after 30 mins by fluorimetrc method
Chain of Histone deacetylase 9 (Q9UKV0 whole entry): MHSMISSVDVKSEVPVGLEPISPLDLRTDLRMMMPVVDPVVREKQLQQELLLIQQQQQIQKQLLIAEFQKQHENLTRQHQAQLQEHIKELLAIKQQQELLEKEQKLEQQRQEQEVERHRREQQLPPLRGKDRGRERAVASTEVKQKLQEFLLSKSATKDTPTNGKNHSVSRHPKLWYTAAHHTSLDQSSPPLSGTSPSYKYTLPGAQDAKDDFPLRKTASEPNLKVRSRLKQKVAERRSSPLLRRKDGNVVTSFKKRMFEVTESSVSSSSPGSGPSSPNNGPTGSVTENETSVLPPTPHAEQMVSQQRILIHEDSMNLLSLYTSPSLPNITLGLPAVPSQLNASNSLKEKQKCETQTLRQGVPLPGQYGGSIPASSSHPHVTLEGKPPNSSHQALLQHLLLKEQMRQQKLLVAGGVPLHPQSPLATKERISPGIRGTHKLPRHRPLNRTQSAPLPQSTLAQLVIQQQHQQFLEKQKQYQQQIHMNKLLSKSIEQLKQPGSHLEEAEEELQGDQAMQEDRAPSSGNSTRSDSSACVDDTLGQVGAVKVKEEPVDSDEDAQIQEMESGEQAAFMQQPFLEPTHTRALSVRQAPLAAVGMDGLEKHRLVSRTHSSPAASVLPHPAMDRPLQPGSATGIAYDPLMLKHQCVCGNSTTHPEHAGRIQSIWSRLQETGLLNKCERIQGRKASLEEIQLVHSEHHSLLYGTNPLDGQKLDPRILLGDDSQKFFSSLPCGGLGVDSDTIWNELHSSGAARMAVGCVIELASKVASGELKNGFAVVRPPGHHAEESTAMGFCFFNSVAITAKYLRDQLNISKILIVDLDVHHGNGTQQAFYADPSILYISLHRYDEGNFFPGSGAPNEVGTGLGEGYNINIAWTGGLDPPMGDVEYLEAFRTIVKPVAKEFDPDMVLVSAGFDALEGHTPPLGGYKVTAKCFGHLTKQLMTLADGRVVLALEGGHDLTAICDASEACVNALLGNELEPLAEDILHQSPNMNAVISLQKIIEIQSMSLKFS

Structure (SMILES) | solubility at 24 h [1] | Ki [2] | EC50 (HuT78) | solubility at 24 h, 100 µM ([3]; phosphate buffer, pH 7.4) | Ki [4] | Ki [5] | Ki [6] | hepatocyte CLint at 1 µM [7] | Ki [8] | Ki (Histone deacetylase 5) | Ki (Histone deacetylase 9) | solubility ([3]; buffer, pH 7.4, 24 h, 100 µM)
Cc1[nH]c2ccccc2c1CCNCc1ccc(/C=C/C(=O)NO)cc1 [PANOBINOSTAT] | 20 mM (≈ 6990 µg/mL) | > 10000 nM | 4.3 nM | 0.069 mM (≈ 24.1 µg/mL) | > 10000 nM | > 10000 nM | > 10000 nM | 8.5 µL/min/1e6 cells |  |  |  | 
Cn1cc(CNCC2CCN(c3ncc(C(=O)NO)cn3)CC2)c2ccccc21 [QUISINOSTAT] | 9.1 mM (≈ 3590 µg/mL) | > 10000 nM | 6.5 nM |  | > 10000 nM | > 10000 nM | > 10000 nM | 9.8 µL/min/1e6 cells | 4.4 nM | 4.3 nM | 5.3 nM | > 0.097 mM
